A short description of data set [1]: In vitro release of paclitaxel from PCPP-SA (20:80) polymer discs. The data set is classed as physicochemical. As to the method: Solid paclitaxel, obtained from Napro Biotherapeutics (Boulder, Colo.) or from the National Cancer Institute (Bethesda, Md.), was mixed with poly[bis(p-carboxyphenoxy)propane-sebacic acid] copolymer (PCPP-SA) (20:80) synthesized according to the method of Domb, A. J., and R. Langer (J. Polym. Sci. 25:3373-3386 (1987)), the teachings of which are incorporated herein by reference, to give a mixture containing 0, 20, 30, or 40% paclitaxel by weight. The paclitaxel-polymer mixture was dissolved in methylene chloride (Fluka, Switzerland) to give a 10% solution (w:v). The solvent was evaporated with a nitrogen stream to yield a dry powder. […]
The efficiency of the delivery of paclitaxel incorporated into a biodegradable polymer into the surrounding medium was assessed in vitro as follows. […]
Protocol. […] The releasing medium was replaced at specified times during the 45-day (1000 hour) incubation period, and the recovered solutions were analyzed by scintillation counting and high pressure liquid chromatography (HPLC). […] Radioactive analysis to quantify the amount of paclitaxel release was done by mixing 200 μl of the releasing buffer solution with 4 ml of a scintillation mixture composed of toluene and Lumax (Landgraat, The Netherlands) scintillation mixture in a 2:1 volume ratio. This solution was counted on a 1211 Rack β-liquid scintillation counter (LKB-Wallac OY, Finland). […]

The test system of data set [2] is 9L, F98, U373, H80, U87, D324 cell lines. Put plainly: In vitro efficacy of paclitaxel on several cell lines (clonogenic assay). The data set is classed as cell-based, rat and human.
The next data set concerns intracranial gliomas. Particulars: i.p.; cited from earlier work.
Data set [3] in a line: Intracerebral distribution of paclitaxel from polymer implant. It is filed as in vivo, rat. Particulars: for time course of paclitaxel brain concentration: 30 days after implant. As to the method:
Animals. Male Fischer 344 rats weighing 200-225 g were obtained from Harlan Sprague-Dawley, Inc. (Indianapolis, Ind.), kept in standard animal facilities with 4 rats/cage, and given free access to Certified Rodent Chow No. 5002 (Ralston Purina Co., St. Louis, Mo.) and to Baltimore city water.
Preparation of the paclitaxel loaded polymer. Polymer discs containing labeled paclitaxel were prepared as above, except that a small amount of ^3 H-labeled paclitaxel (specific activity, 19.3 Ci/mmol; National Cancer Institute) in toluene was added to the initial solution of polymer and paclitaxel in methylene chloride. The polymer-paclitaxel mixture was then dried in a vacuum desiccator and pressed into discs using a table vise calibrated to form a pellet.
Paclitaxel-polymer implantation. The procedure for polymer implantation in the rat has been described by Tamargo, R. J., et al. (Cancer Res. 53:329-333 (1993)), the teachings of which are incorporated herein by reference. Briefly, the heads of anesthetized rats were shaved and prepared aseptically. The skull was exposed with a midline incision, and a 3-mm burr hole was drilled through the skull 5 mm posterior and 3 mm lateral to the bregma. The dura was incised with a microsurgical knife (Edward Weck and Co., Inc., Research Triangle Park, N.C.), and the polymer disc was inserted into the brain parenchyma. The wound was irrigated and closed with surgical clips (Clay Adams, Parsippany, N.J.).
Protocol for intracerebral drug distribution. Twelve rats were given implants of 10-mg discs containing 40% paclitaxel by weight and 0.60 μCi/mg disc weight. At 3, 9, 17, and 30 days postimplantation, groups of 3 rats each were euthanized. The skull was opened and the brain exposed. The polymer disc was removed from the brain in situ. The brain was then removed from the skull and snap frozen in heptane over dry ice. The brain was sectioned in the midline into implant and contralateral hemispheres. Each hemisphere was sectioned coronally at 2-mm intervals by using a tissue blade grid consisting of individual tissue blades arranged in parallel separated by 2-mm metal spacers. Each section was weighed, dissolved in 15 ml Solvable homogenizing solution (New England Nuclear Dupont, Boston, Mass.), and combined with 15 ml Atomlight™ scintillation mixture (New England Nuclear Dupont). The brain samples were counted on a Beckman liquid scintillation counter. Raw counts were corrected for quenching and converted to dpm using a linear regression based on a series of quenched standards.
To convert dpm/mg tissue to paclitaxel concentration, a second experiment was performed. Four rats were given implants of 40% loaded polymer discs with 0.39 μCi/mg. One rat each was sacrificed at 3, 9, 17, and 30 days. The brain was removed and frozen as above. A 2-mm coronal section was taken through the site of the polymer implant. The section was minced and extracted with ethanol. The ethanol fraction was divided in two. […] The Rf value for the paclitaxel was determined and each lane cut into 4 sections: A. origin; B, origin to paclitaxel spot; C. paclitaxel spot; and D. paclitaxel spot to solvent front. The chromatography strips were combined with Atomlight™ mixture and counted in a liquid scintillation counter. […] To determine the efficiency of extraction, the remaining half of the original extract was combined with mixture and counted, and the residual brain tissue was homogenized and counted as above. […]

For a further data set, the system named is F98. It is filed as cell-based. Particulars: Rattus norvegicus, continuous 6-8 days exposure, read-out: LD90 (the source's name).

Turning to `CC(=O)O[C@H]1C(=O)[C@@]2(C)[C@H]([C@H](OC(=O)c3ccccc3)[C@]3(O)C[C@H](OC(=O)[C@H](O)[C@@H](NC(=O)c4ccccc4)c4ccccc4)C(C)=C1C3(C)C)[C@]1(OC(C)=O)CO[C@@H]1C[C@@H]2O` [paclitaxel], in data set [1] (each of the polymer loadings, phosphate buffer pH 7.4, 37° C), the release profile entry is given as “released biphasically from the polymer, with an initial burst phase followed by a slower constant release phase”. Also, the “identity of released paclitaxel by HPLC” value in data set [1] (released into buffer) is listed as “corresponded with intact paclitaxel”. In data set [2] (exposure for more than 24 h), the “factor of potency increase in vitro” value was “two to four”. For the same molecule, the “concentration at which log cell kill occurred” value in data set [2] (rat and human brain-tumor cell lines) is reported as “nanomolecular concentrations”. For the same molecule, the “amount required for log cell kill in rat lines relative to human lines” value in data set [2] (rat lines (9L, F98) vs human lines (U87, U373, H80), 6-8 days) is recorded as “four to ten”. The “increased survival from systemic intraperitoneal injections” value in the data set on intracranial gliomas is listed as “no increased survival”. Also, the “time course of paclitaxel brain concentration” value was “still constant or rising throughout the rat brain 30 days after implant” in data set [3] and “increased slightly during the 30 days” in data set [3] (listed as Paclitaxel). For the same molecule, the “duration of elevated paclitaxel concentration in brain” value in data set [3] (after implantation in the rat brain) is given as “at least one month”. Also, in data set [3] (brain, each time point), the “raw counts tissue bound” value was 31±3%. The “raw counts representing parent drug” value in data set [3] (brain, each time point, ± standard error of the mean) is given as “approximately 56±3%”. Moreover, the IC90 with F98 came out at 25 nM.

The record behind these values is patent USRE37410E, “Controlled local delivery of chemotherapeutic agents for treating solid tumors” (priority 1999, dated 2001).
